What follows are molecules tested against T1, hMAGL (Homo sapiens, UniProt Q99685) (assay: 2-AG assay: MAGL inhibition, hydrolysis of 2-arachidonoylglycerol to arachidonic acid followed by mass spectrometry).
T1 sequence (Q99685 1-303): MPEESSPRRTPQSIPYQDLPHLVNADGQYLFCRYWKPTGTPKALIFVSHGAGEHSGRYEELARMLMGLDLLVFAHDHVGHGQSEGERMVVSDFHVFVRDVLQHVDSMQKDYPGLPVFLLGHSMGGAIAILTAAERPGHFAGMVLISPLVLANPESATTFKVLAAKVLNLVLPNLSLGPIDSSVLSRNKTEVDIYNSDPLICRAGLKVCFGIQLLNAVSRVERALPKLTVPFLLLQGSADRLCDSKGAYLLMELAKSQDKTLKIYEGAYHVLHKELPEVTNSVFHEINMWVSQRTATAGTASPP
Type: biochemical
Outline: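 MAGL preincubated with compound 15 min at RT in 50 mM Tris, 1 mM EDTA, 0.01% Tween-20, 2.5% DMSO; reaction started with 8 μM 2-AG (final), […], 30 min at RT. Quenched with acetonitrile containing d8-arachidonic acid; arachidonic acid quantified by RapidFire SPE-triple quad MS as arachidonic acid/d8 ratio.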

| IC50 | SMILES |
| --- | --- |
| 11.8 nM | O=C(N1CC2(CC(Cc3ncn(CC(F)(F)F)n3)C2)C1)N1CC2(CC(n3cnc(C(F)(F)F)n3)C2)C1 [Example 331, [6-[[1-(2,2,2-trifluoroethyl)-1,2,4-triazol-3-yl]methyl]-2-azaspiro[3.3]heptan-2-yl]-[6-[3-(trifluoromethyl)-1,2,4-triazol-1-yl]-2-azaspiro[3.3]heptan-2-yl]methanone] |
| 672 nM | O=C(N1CC2(CC(n3cnc(C4CC4)n3)C2)C1)N1CC2(CN(Cc3nc(C(F)(F)F)n[nH]3)C2)C1 [Example 230, [6-(3-cyclopropyl-1,2,4-triazol-1-yl)-2-azaspiro[3.3]heptan-2-yl]-[6-[[3-(trifluoromethyl)-1H-1,2,4-triazol-5-yl]methyl]-2,6-diazaspiro[3.3]heptan-2-yl]methanone] |
| 3.54 nM | N=S(=O)(c1cnn(CC2CC3(C2)CN(C(=O)N2CC4(CC(n5cnc(C(F)(F)F)n5)C4)C2)C3)c1)C(F)(F)F (centres unmarked) [Example 341, [6-[[4-(trifluoromethylsulfonimidoyl)pyrazol-1-yl]methyl]-2-azaspiro[3.3]heptan-2-yl]-[6-[3-(trifluoromethyl)-1,2,4-triazol-1-yl]-2-azaspiro[3.3]heptan-2-yl]methanone] |
| 132 nM | CC(C)(C)n1nccc1CN1CC2(C1)CN(C(=O)N1CC3(CC(n4cnc(C(F)(F)F)n4)C3)C1)C2 [Example 275, [6-[(2-tert-butylpyrazol-3-yl)methyl]-2,6-diazaspiro[3.3]heptan-2-yl]-[6-[3-(trifluoromethyl)-1,2,4-triazol-1-yl]-2-azaspiro[3.3]heptan-2-yl]methanone] |
| 123 nM | Cn1c(CN2CC3(C2)CN(C(=O)N2CC4(CC(n5cnc(C(F)(F)F)n5)C4)C2)C3)nnc1C(F)(F)F [Example 314, [6-[[4-methyl-5-(trifluoromethyl)-1,2,4-triazol-3-yl]methyl]-2,6-diazaspiro[3.3]heptan-2-yl]-[6-[3-(trifluoromethyl)-1,2,4-triazol-1-yl]-2-azaspiro[3.3]heptan-2-yl]methanone] |
| 16.8 nM | Cn1cc(CN2CC3(C2)CN(C(=O)N2CC4(CC(n5cnc(C6CC6)n5)C4)C2)C3)c(C(F)(F)F)n1 [Example 192] |
| 53 nM | CC(F)(F)c1noc(CN2CC3(C2)CN(C(=O)N2CC4(CC(n5cnc(C(F)(F)F)n5)C4)C2)C3)n1 [Example 258, [6-[[3-(1,1-difluoroethyl)-1,2,4-oxadiazol-5-yl]methyl]-2,6-diazaspiro[3.3]heptan-2-yl]-[6-[3-(trifluoromethyl)-1,2,4-triazol-1-yl]-2-azaspiro[3.3]heptan-2-yl]methanone] |
| 8.89 nM | CCn1nc(C(F)(F)F)cc1CN1CC2(C1)CN(C(=O)N1CC3(CC(n4cnc(C(F)(F)F)n4)C3)C1)C2 [Example 169] |
| 23.4 nM | O=C(N1CC2(CC(c3cc(C4CC4)n[nH]3)C2)C1)N1CC2(CN(Cc3cnn(C(F)(F)F)c3)C2)C1 [Example 180, [6-(3-cyclopropyl-1H-pyrazol-5-yl)-2-azaspiro[3.3]heptan-2-yl]-[6-[[1-(trifluoromethyl)pyrazol-4-yl]methyl]-2,6-diazaspiro[3.3]heptan-2-yl]methanone] |
| 31.9 nM | O=C(N1CC2(CC(n3cnc(C(F)(F)F)n3)C2)C1)N1CC2(CN(Cc3conc3C(F)(F)F)C2)C1 [Example 218, [6-[[3-(trifluoromethyl)isoxazol-4-yl]methyl]-2,6-diazaspiro[3.3]heptan-2-yl]-[6-[3-(trifluoromethyl)-1,2,4-triazol-1-yl]-2-azaspiro[3.3]heptan-2-yl]methanone] |
| 44.9 nM | O=C(N1CC2(CC(Cc3cn(CC(F)(F)F)nn3)C2)C1)N1CC2(CC(n3cnc(C4(O)CC4)n3)C2)C1 [Example 254, [6-[3-(1-hydroxycyclopropyl)-1,2,4-triazol-1-yl]-2-azaspiro[3.3]heptan-2-yl]-[6-[[1-(2,2,2-trifluoroethyl)triazol-4-yl]methyl]-2-azaspiro[3.3]heptan-2-yl]methanone] |
| 13.4 nM | O=C(N1CC2(CC(n3cnc(C4CC4)n3)C2)C1)N1CC2(CN(Cc3cnn4ccccc34)C2)C1 [Example 285, [6-(3-cyclopropyl-1,2,4-triazol-1-yl)-2-azaspiro[3.3]heptan-2-yl]-[6-(pyrazolo[1,5-a]pyridin-3-ylmethyl)-2,6-diazaspiro[3.3]heptan-2-yl]methanone] |
| 167 nM | O=C(N1CC2(CC(n3cnc(C(F)(F)F)n3)C2)C1)N1CC2(CN(Cc3ccnn3CC(F)F)C2)C1 [Example 260, [6-[[2-(2,2-difluoroethyl)pyrazol-3-yl]methyl]-2,6-diazaspiro[3.3]heptan-2-yl]-[6-[3-(trifluoromethyl)-1,2,4-triazol-1-yl]-2-azaspiro[3.3]heptan-2-yl]methanone] |
| 0.13 nM | O=C(N1CC2(CC(Cc3cnn4c(C(F)(F)F)ccnc34)C2)C1)N1CC2(CC(n3cnc(C4CC4)n3)C2)C1 [Example 359, [6-(3-cyclopropyl-1,2,4-triazol-1-yl)-2-azaspiro[3.3]heptan-2-yl]-[6-[[7-(trifluoromethyl)pyrazolo[1,5-a]pyrimidin-3-yl]methyl]-2-azaspiro[3.3]heptan-2-yl]methanone] |

More lines, now with the values behind:

| SMILES | IC50 |
| --- | --- |
| O=C(N1CC2(CCN(Cc3cc(C(F)(F)F)sn3)CC2)C1)N1CC2(CC(n3cnc(C4(O)CC4)n3)C2)C1 [Example 48, [6-[3-(1-hydroxycyclopropyl)-1,2,4-triazol-1-yl]-2-azaspiro[3.3]heptan-2-yl]-[7-[[5-(trifluoromethyl)isothiazol-3-yl]methyl]-2,7-diazaspiro[3.5]nonan-2-yl]methanone] | 42.9 nM |
| O=C(N1CC2(CC(Cc3nnc(C4(C(F)(F)F)CC4)o3)C2)C1)N1CC2(CC(n3cnc(C(F)(F)F)n3)C2)C1 [Example 7] | 2.51 nM |
| Cc1cc(C(F)(F)F)n(CC2CC3(C2)CN(C(=O)N2CC4(CC(n5cnc(C6(O)CC6)n5)C4)C2)C3)n1 [Example 73] | 110 nM |
| Cn1nc(CC2CC3(C2)CN(C(=O)N2CC4(CC(n5cnc(C6(O)CC6)n5)C4)C2)C3)c(C(F)(F)F)n1 [Example 137] | 2.4 nM |
| O=C(N1CC2(CCN(Cc3cc(C(F)(F)F)on3)CC2)C1)N1CC2(CC(n3cnc(C(F)(F)F)n3)C2)C1 [Example 79, [7-[[5-(trifluoromethyl)isoxazol-3-yl]methyl]-2,7-diazaspiro[3.5]nonan-2-yl]-[6-[3-(trifluoromethyl)-1,2,4-triazol-1-yl]-2-azaspiro[3.3]heptan-2-yl]methanone] | 71.4 nM |
| Cc1cc(C2CC2)n(CC2CC3(C2)CN(C(=O)N2CC4(CC(n5cnc(C6CC6)n5)C4)C2)C3)n1 [Example 132, [6-[(5-cyclopropyl-3-methyl-pyrazol-1-yl)methyl]-2-azaspiro[3.3]heptan-2-yl]-[6-(3-cyclopropyl-1,2,4-triazol-1-yl)-2-azaspiro[3.3]heptan-2-yl]methanone] | 0.29 nM |
| O=C(N1CC2(CC(Cc3nc(C(F)(F)F)ns3)C2)C1)N1CC2(CC(n3cnc(C(F)(F)F)n3)C2)C1 [Example 15, [6-[[3-(trifluoromethyl)-1,2,4-thiadiazol-5-yl]methyl]-2-azaspiro[3.3]heptan-2-yl]-[6-[3-(trifluoromethyl)-1,2,4-triazol-1-yl]-2-azaspiro[3.3]heptan-2-yl]methanone] | 2.25 nM |
| Cc1cc(C(F)(F)F)nn1CC1CC2(C1)CN(C(=O)N1CC3(CC(n4cnc(C5(O)CC5)n4)C3)C1)C2 [Example 70] | 131 nM |
| O=C(N1CC2(CC(n3cnc(C(F)(F)F)n3)C2)C1)N1CC2(CN(Cc3snnc3C3CC3)C2)C1 [Example 89, [6-[(4-cyclopropylthiadiazol-5-yl)methyl]-2,6-diazaspiro[3.3]heptan-2-yl]-[6-[3-(trifluoromethyl)-1,2,4-triazol-1-yl]-2-azaspiro[3.3]heptan-2-yl]methanone] | 312 nM |
| O=C(N1CC2(CC(Cn3cc(C(F)(F)F)nn3)C2)C1)N1CC2(CC(n3cnc(C4CC4)n3)C2)C1 [Example 104, [6-(3-cyclopropyl-1,2,4-triazol-1-yl)-2-azaspiro[3.3]heptan-2-yl]-[6-[[4-(trifluoromethyl)triazol-1-yl]methyl]-2-azaspiro[3.3]heptan-2-yl]methanone] | 1.45 nM |
| O=C(N1CC2(CC(n3cnc(C(F)(F)F)n3)C2)C1)N1CC2(CN(Cc3cn[nH]c3C(F)(F)F)C2)C1 [Example 49, [6-[[5-(trifluoromethyl)-1H-pyrazol-4-yl]methyl]-2,6-diazaspiro[3.3]heptan-2-yl]-[6-[3-(trifluoromethyl)-1,2,4-triazol-1-yl]-2-azaspiro[3.3]heptan-2-yl]methanone] | 47.8 nM |
| Cc1cc(C(F)F)n(CC2CC3(C2)CN(C(=O)N2CC4(CC(n5cnc(C6CC6)n5)C4)C2)C3)n1 [Example 92] | 0.21 nM |
| O=C(N1CC2(CC(Cn3cnc(C(F)(F)F)c3)C2)C1)N1CC2(CC(n3cnc(C4(O)CC4)n3)C2)C1 [Example 41, [6-[3-(1-hydroxycyclopropyl)-1,2,4-triazol-1-yl]-2-azaspiro[3.3]heptan-2-yl]-[6-[[4-(trifluoromethyl)imidazol-1-yl]methyl]-2-azaspiro[3.3]heptan-2-yl]methanone] | 93.7 nM |
| O=C(N1CC2(CC(Cc3n[nH]c(C(F)(F)F)n3)C2)C1)N1CC2(CC(n3cnc(C4CC4)n3)C2)C1 [Example 10] | 1.96 nM |
| O=C(N1CC2(CC(n3cnc(C(F)(F)F)n3)C2)C1)N1CC2(CN(Cc3cc(C(F)(F)F)ns3)C2)C1 [Example 153, [6-[[3-(trifluoromethyl)isothiazol-5-yl]methyl]-2,6-diazaspiro[3.3]heptan-2-yl]-[6-[3-(trifluoromethyl)-1,2,4-triazol-1-yl]-2-azaspiro[3.3]heptan-2-yl]methanone] | 15.3 nM |

— US20260374756A1, “HETEROCYCLIC COMPOUNDS AS INHIBITORS OF MONOACYLGLYCEROL LIPASE (MAGL)” (Hoffmann-La Roche Inc., priority 2022, published 2026)
